In patent publication US7994318B2, “Coumarin derivatives useful as TNFα inhibitors” (Chugai Seiyaku Kabushiki Kaisha, priority 2000, dated 2011):
Like-named read-outs stand apart in the source and are kept apart here.

Tested on: TNFα
Test: In vitro assay: TNFα ELISA of supernatants of LPS-stimulated human PBMC
Assay type: cell-based
Settings: human PBMC pretreated with drug 60 min, stimulated with LPS (E. coli O55:B5) 100 ng/mL, overnight culture, TNFα in supernatant by ELISA, read-out: 50% Inhibition of TNFα level (IC50)
Experimental: Enzyme-linked immunosorbent assays (ELISA) for TNFα can be performed in a conventional manner (Blood, 75, 40-47 (1990)). Human PBMC are isolated from heparinized venous blood obtained from healthy volunteers by Ficoll-Hypaque density centrifugation. The cells are cultured in RPMI1640 medium supplemented with 5% heat-inactivated fetal calf serum and antibiotics. PBMC (5×10E5 cells/mL) in 0.2 mL aliquot are pretreated with drugs in DMSO for 60 min at 37° C. in 96 well round-bottomed tissue culture plates. Thereafter, PBMC in the presence or absence of compound are stimulated with 1 mg/mL LPS from E. coli O55:B5 at a final concentration of 100 ng/mL. After overnight culture, the supernatants are harvested and assayed immediately for TNFα levels from each well. The concentration of TNFα in the supernatant is determined by human TNFα ELISA Kit according to the manufacture's directions.
Active compounds are characterized by the concentration of the compound that caused 50% inhibition of TNFα level (IC50).

CCc1cc2c(C)c(Cc3ccccc3)c(=O)oc2cc1OC(=O)N(C)C [Example 14-9]
IC50: 4600 nM

CN(C)C(=O)Oc1ccc2c(CCO)c(Cc3ccccc3)c(=O)oc2c1 [Example 4, dimethyl carbamic acid 2-oxo-2H-3-benzyl-4-(2-hydroxylethyl)-1-benzopyran-7-yl ester]
IC50 (Homo sapiens, PBMC): 2100 nM

CCCS(=O)(=O)Nc1cccc(Cc2c(C)c3cc(Cl)c(Oc4ncccn4)cc3oc2=O)c1 [Example 20-46]
IC50: 960 nM

Cc1c(Cc2ccc(C(C)C)cc2)c(=O)oc2cc(OC(=O)N(C)C)ccc12 [Example 14-52]
IC50: 11600 nM

CCc1c(Cc2ccccc2)c(=O)oc2cc(Oc3nccs3)ccc12 [Example 22-10]
IC50: 2500 nM

Cc1c(Cc2ccccc2)c(=O)oc2cc(SC(=O)N(C)C)ccc12 [Example 13, dimethyl thiocarbamic acid S-2-oxo-2H-3-benzyl-4-methyl-1-benzopyran-7-yl ester]
IC50 (Homo sapiens, PBMC): 680 nM

Cc1c(Cc2ccccc2N)c(=O)oc2cc(OC(=O)N(C)C)ccc12 [Example 14-64]
IC50: 2100 nM

Cc1c(Cc2ccccc2)c(=O)oc2cc(OC(=O)N(C)C)cc(F)c12 [Example 10, dimethyl carbamic acid 2-oxo-2H-3-benzyl-4-methyl-5-fluoro-1-benzopyran-7-yl ester]
IC50 (Homo sapiens, PBMC): < 600 nM | IC50 (listed as 14-4): 440 nM

CCNC(=O)Nc1cccc(Cc2c(C)c3ccc(OC(=O)N(C)C)cc3oc2=O)c1 [Example 14-69]
IC50: 2400 nM

CN(C)C(=O)Oc1ccc2c(-c3ccccc3)c(Cc3ccc(F)cc3)c(=O)oc2c1 [Example 14-84]
IC50: 1670 nM

CCS(=O)(=O)Nc1cccc(Cc2c(C)c3cc(Cl)c(Oc4ncccn4)cc3oc2=O)c1 [Example 20-44]
IC50: 300 nM

Cc1c(Cc2ccccc2)c(=O)oc2cc(OC(=O)N(C)C)c([N+](=O)[O-])cc12 [Example 14-17]
IC50: 120 nM

Cc1c(Cc2ccccc2)c(=O)oc2cc(C(O)c3ccsc3)ccc12 (stereo not shown) [Example 26-22]
IC50: 8200 nM

Cc1c(Cc2ccc(N)cc2)c(=O)oc2cc(OC(=O)N(C)C)ccc12 [Example 14-66]
IC50: 5200 nM

CCc1c(Cc2cccc(N)c2)c(=O)oc2cc(OC(=O)N(C)C)ccc12 [Example 14-78]
IC50: 1300 nM

Cc1c(Cc2ccccc2)c(=O)oc2cc(Oc3ncccn3)cc(F)c12 [Example 20-14]
IC50: 9700 nM

Cc1c(Cc2ccccc2)c(=O)oc2cc(OC(=O)N(C)C)c(Br)cc12 [Example 14-15]
IC50: 60 nM

Cc1c(Cc2ccccc2)c(=O)oc2cc(Oc3ncccn3)c(I)cc12 [Example 20-5]
IC50: 8800 nM

Cc1c(Cc2ccccc2)c(=O)oc2cc(OC(=O)N(C)C)c(Cl)cc12 [Example 2, dimethyl carbamic acid 2-oxo-2H-3-benzyl-4-methyl-6-chloro-1-benzopyran-7-yl ester]
IC50 (Homo sapiens, PBMC): 90 nM

Cc1c(Cc2ccncc2)c(=O)oc2cc(OC(=O)N(C)C)c(Cl)cc12 [Example 11, dimethyl carbamic acid 2-oxo-2H-3-(p-pyridinylmethyl)-4-methyl-6-chloro-1-benzopyran-7-yl ester]
IC50 (Homo sapiens, PBMC): 130 nM

Cc1c(Cc2cccnc2)c(=O)oc2cc(OC(=O)N(C)C)c(Cl)cc12 [Example 14-35]
IC50: 450 nM

Cc1c(Cc2ccccc2)c(=O)oc2cc(OC(=O)N(C)C)c(C=O)cc12 [Example 14-16]
IC50: 9600 nM

CCOC(=O)CC(=O)Nc1cccc(Cc2c(C)c3c(F)cc(Oc4ncccn4)cc3oc2=O)c1 [Example 20-40]
IC50: < 600 nM

Cc1c(Cc2cccnc2)c(=O)oc2cc(OC(=O)N(C)C)ccc12 [Example 14-31]
IC50: 2200 nM

Cc1c(Cc2ccccc2)c(=O)oc2cc(Oc3ncccn3)c(Cl)cc12 [Example 16, 2-oxo-2H-3-benzyl-4-methyl-6-chloro-7-(pyrimidin-2-yloxyl)-1-benzopyrane]
IC50 (Homo sapiens, PBMC): 6800 nM

CCOC(=O)CCC(=O)Nc1cccc(Cc2c(C)c3ccc(Oc4ncccn4)cc3oc2=O)c1 [Example 20-21]
IC50: 2800 nM

Cc1c(Cc2ccccc2)c(=O)oc2cc(OC(=O)N(C)C)ccc12 [Example 1, dimethyl carbamic acid 2-oxo-2H-3-benzyl-4-methyl-1-benzopyran-7-yl ester]
IC50 (Homo sapiens, PBMC): 360 nM

CN(C)C(=O)Oc1ccc2c(CC(O)c3ccccn3)c(Cc3ccccc3)c(=O)oc2c1 (stereo not shown) [Example 5, dimethyl carbamic acid 2-oxo-2H-3-benzyl-4-(2-(2-pyridyl)-2-hydroxylethyl)-1-benzopyran-7-yl ester]
IC50 (Homo sapiens, PBMC): 19300 nM

Cc1ccc(S(=O)(=O)Nc2cccc(Cc3c(C)c4cc(Cl)c(Oc5ncccn5)cc4oc3=O)c2)cc1 [Example 20-45]
IC50: 7200 nM

Cc1c(Cc2ccncc2)c(=O)oc2cc(Oc3ncccn3)ccc12 [Example 20-10]
IC50: 10400 nM

Cc1c(Cc2cccc(N)c2)c(=O)oc2cc(Oc3ncccn3)ccc12 [Example 20-19]
IC50: 7200 nM

CCc1c(Cc2cccc(NC(C)=O)c2)c(=O)oc2cc(Oc3nccs3)ccc12 [Example 22-8]
IC50: < 600 nM

Cc1c(Cc2ccccc2)c(=O)oc2cc(C(F)(F)C(=O)N(C)C)ccc12 [Example 24, 2-oxo-3-benzyl-4-methyl-7-(N,N-dimethylaminocarboxy-difluoromethyl)-1H-benzopyrane]
IC50 (Homo sapiens, PBMC): 10400 nM

CCc1c(Cc2cccc([N+](=O)[O-])c2)c(=O)oc2cc(Oc3ncccn3)cc(F)c12 [Example 20-58]
IC50: 11900 nM

CCOC(=O)CC(=O)Nc1cccc(Cc2c(C)c3ccc(Oc4ncccn4)cc3oc2=O)c1 [Example 19, 2-oxo-2H-3-(m-ethoxycarbonyl-acetylaminobenzyl)-4-methyl-7-(pyrimidin-2-yloxyl)-1-benzopyrane]
IC50 (Homo sapiens, PBMC): < 600 nM

CC(=O)Nc1cccc(Cc2c(C)c3ccc(OC(=O)N(C)C)cc3oc2=O)c1 [Example 14-60]
IC50: 1100 nM

CCc1c(Cc2cccc(N)c2)c(=O)oc2cc(Oc3ncccn3)c(Cl)cc12 [Example 20-56]
IC50: 7800 nM

CCOC(=O)CC(=O)Nc1cccc(Cc2c(C)c3cc(Cl)c(Oc4ncccn4)cc3oc2=O)c1 [Example 20-29]
IC50: < 600 nM

CCc1c(Cc2ccccc2)c(=O)oc2cc(OC(=O)N(C)C)c(Cl)cc12 [Example 14-74]
IC50: 240 nM

CC(=O)CC(=O)Nc1cccc(Cc2c(C)c3cc(Cl)c(Oc4ncccn4)cc3oc2=O)c1 [Example 20-42]
IC50: 2200 nM

CC(=O)Nc1cccc(Cc2c(C)c3c(F)cc(Oc4ncccn4)cc3oc2=O)c1 [Example 20-39]
IC50: 5400 nM

Cc1c(Cc2ccccc2)c(=O)oc2cc(Oc3ncccn3)c(Br)cc12 [Example 20-4]
IC50: 9500 nM

CC(=O)Nc1cccc(Cc2c(C)c3cc(Cl)c(OC(=O)N(C)C)cc3oc2=O)c1 [Example 12, dimethyl carbamic acid 2-oxo-2H-3-(m-acetylamidobenzyl)-4-methyl-6-chloro1-benzopyran-7-yl ester]
IC50 (Homo sapiens, PBMC): < 600 nM | IC50 (listed as 14-25): 310 nM

CCOC(=O)CCC(=O)Nc1cccc(Cc2c(C)c3cc(Cl)c(Oc4ncccn4)cc3oc2=O)c1 [Example 20-28]
IC50: 1200 nM

Cc1c(Cc2ccccc2)c(=O)oc2cc(C(C)(F)F)ccc12 [Example 26-11]
IC50: 9000 nM

Cc1c(Cc2cccnc2)c(=O)oc2cc(Oc3ncccn3)c(Cl)cc12 [Example 17, 2-oxo-2H-3-(3-pyridylmethyl)-4-methyl-6-chloro-7-(pyrimidin-2-yloxyl)-1-benzopyrane]
IC50 (Homo sapiens, PBMC): 50000 nM

Cc1c(Cc2ccncc2)c(=O)oc2cc(OC(=O)N(C)C)ccc12 [Example 14-32]
IC50: 1300 nM

Cc1c(Cc2cccnc2)c(=O)oc2c(C)c(OC(=O)N(C)C)ccc12 [Example 14-33]
IC50: 8400 nM

COc1ccccc1Cc1c(C)c2ccc(OC(=O)N(C)C)cc2oc1=O [Example 14-44]
IC50: 7500 nM

Cc1c(Cc2ccccc2)c(=O)oc2cc(OC(=O)N(C)C)c(C#C[Si](C)(C)C)cc12 [Example 14-18]
IC50: 3900 nM

Cc1c(Cc2cccc(NC(=O)CNC(=O)OCc3ccccc3)c2)c(=O)oc2cc(Oc3ncccn3)c(Cl)cc12 [Example 20-31]
IC50: 9800 nM

Cc1c(Cc2ccccc2)c(=O)oc2cc(Cn3ccnc3N)ccc12 [Example 25, 2-oxo-3-benzyl-4-methyl-7-(2-aminoimidazol-1-yl-methyl)-1H-benzopyrane]
IC50 (Homo sapiens, PBMC): 11800 nM | IC50: 13700 nM

CCOC(=O)CC(=O)Nc1cccc(Cc2c(C)c3cc(Cl)c(OC(=O)N(C)C)cc3oc2=O)c1 [Example 14-26]
IC50: 50 nM

Cc1c(Cc2ccc(S(C)(=O)=O)cc2)c(=O)oc2cc(OC(=O)N(C)C)ccc12 [Example 14-43]
IC50: 6600 nM

Cc1c(Cc2cccc(N(C)C)c2)c(=O)oc2cc(OC(=O)N(C)C)ccc12 [Example 14-72]
IC50: 1900 nM

CCOC(=O)CC(=O)Nc1cccc(Cc2c(C)c3ccc(Oc4nccs4)cc3oc2=O)c1 [Example 22-6]
IC50: 250 nM

COc1ccc(Cc2c(C)c3ccc(OC(=O)N(C)C)cc3oc2=O)cc1 [Example 14-46]
IC50: 5600 nM

COc1cc2c(C)c(Cc3ccccc3)c(=O)oc2cc1OC(=O)N(C)C [Example 3, dimethyl carbamic acid 2-oxo-2H-3-benzyl-4-methyl-6-methoxy-1-benzopyran-7-yl ester]
IC50 (Homo sapiens, PBMC): 580 nM
